Active and inactive are the calls of the source. The calls are words filed in the database; no cut-off is given here.
Tests used:
Histone deacetylase 2 = Histone deacetylase 2 (Homo sapiens, UniProt Q92769); assay: Inhibition of human HDAC2 assessed as target activity using fluorogenic substrate ZMAL for 90 min by microplate reader at 355nm
[1] = biological target: T1, Bromodomain-containing protein 2 (Homo sapiens, UniProt P25440); assay: Binding affinity to human BRD2 domain 2 assessed as dissociation constant by isothermal titration calorimetry assay
T1 sequence (P25440 whole entry, the tested form may be a part): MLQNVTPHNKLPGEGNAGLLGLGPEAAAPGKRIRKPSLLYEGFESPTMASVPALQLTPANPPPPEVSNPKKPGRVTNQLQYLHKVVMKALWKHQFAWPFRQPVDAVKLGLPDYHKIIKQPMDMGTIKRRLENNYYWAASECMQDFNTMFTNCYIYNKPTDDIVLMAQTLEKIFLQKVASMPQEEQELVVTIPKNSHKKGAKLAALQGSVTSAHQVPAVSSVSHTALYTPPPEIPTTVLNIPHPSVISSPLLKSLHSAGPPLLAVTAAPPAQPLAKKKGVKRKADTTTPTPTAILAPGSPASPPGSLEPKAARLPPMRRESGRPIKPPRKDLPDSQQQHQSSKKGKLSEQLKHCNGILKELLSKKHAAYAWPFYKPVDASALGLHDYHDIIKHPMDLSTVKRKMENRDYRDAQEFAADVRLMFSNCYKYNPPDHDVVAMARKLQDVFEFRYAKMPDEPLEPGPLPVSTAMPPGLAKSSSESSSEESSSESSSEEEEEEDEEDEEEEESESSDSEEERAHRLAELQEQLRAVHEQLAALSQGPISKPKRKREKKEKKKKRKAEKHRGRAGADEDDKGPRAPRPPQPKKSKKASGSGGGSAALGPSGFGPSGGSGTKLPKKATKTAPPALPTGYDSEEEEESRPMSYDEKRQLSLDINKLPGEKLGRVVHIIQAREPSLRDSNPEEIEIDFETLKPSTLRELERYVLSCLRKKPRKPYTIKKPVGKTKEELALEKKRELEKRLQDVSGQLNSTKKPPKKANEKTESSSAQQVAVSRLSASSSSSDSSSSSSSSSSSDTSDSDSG

[2] = biological target: T2, Histone deacetylase (Homo sapiens) (UniProt Q13547+O15379+Q9UBN7+Q92769+Q9UQL6+Q8WUI4+Q9BY41+Q96DB2+P56524+Q9UKV0+Q969S8); assay: Inhibition of HDAC in human K562 cells assessed as decrease in MYC expression measured after 24 to 72 hrs by Western blot analysis; type: cell-based; details: time 24-72 hrs
HPBALL [3] = assay: Anticancer activity against human HPBALL cells assessed as cell growth inhibition by CellTiter-Glo luminescent assay; type: functional, cell-based
[4] = biological target: T1, Bromodomain-containing protein 2; assay: Binding affinity to human BRD2 domain 1 assessed as dissociation constant by isothermal titration calorimetry assay
TALL-1 [5] = assay: Anticancer activity against human TALL-1 cells assessed as cell growth inhibition by CellTiter-Glo luminescent assay; type: functional, cell-based
HL-60 [6] = assay: Cytotoxicity against human HL-60 cells assessed as cell viability at 5 uM by CellTiter-Glo luminescent assay; type: functional; details: read-out: Activity
[7] = biological target: T3, Protein deacetylase HDAC6 (Homo sapiens, UniProt Q9UBN7); assay: Inhibition of human recombinant HDAC6 assessed as fluorescence using fluorogenic substrate ZMAL incubated for 90 min by microplate reader
T3 sequence (Q9UBN7 whole entry): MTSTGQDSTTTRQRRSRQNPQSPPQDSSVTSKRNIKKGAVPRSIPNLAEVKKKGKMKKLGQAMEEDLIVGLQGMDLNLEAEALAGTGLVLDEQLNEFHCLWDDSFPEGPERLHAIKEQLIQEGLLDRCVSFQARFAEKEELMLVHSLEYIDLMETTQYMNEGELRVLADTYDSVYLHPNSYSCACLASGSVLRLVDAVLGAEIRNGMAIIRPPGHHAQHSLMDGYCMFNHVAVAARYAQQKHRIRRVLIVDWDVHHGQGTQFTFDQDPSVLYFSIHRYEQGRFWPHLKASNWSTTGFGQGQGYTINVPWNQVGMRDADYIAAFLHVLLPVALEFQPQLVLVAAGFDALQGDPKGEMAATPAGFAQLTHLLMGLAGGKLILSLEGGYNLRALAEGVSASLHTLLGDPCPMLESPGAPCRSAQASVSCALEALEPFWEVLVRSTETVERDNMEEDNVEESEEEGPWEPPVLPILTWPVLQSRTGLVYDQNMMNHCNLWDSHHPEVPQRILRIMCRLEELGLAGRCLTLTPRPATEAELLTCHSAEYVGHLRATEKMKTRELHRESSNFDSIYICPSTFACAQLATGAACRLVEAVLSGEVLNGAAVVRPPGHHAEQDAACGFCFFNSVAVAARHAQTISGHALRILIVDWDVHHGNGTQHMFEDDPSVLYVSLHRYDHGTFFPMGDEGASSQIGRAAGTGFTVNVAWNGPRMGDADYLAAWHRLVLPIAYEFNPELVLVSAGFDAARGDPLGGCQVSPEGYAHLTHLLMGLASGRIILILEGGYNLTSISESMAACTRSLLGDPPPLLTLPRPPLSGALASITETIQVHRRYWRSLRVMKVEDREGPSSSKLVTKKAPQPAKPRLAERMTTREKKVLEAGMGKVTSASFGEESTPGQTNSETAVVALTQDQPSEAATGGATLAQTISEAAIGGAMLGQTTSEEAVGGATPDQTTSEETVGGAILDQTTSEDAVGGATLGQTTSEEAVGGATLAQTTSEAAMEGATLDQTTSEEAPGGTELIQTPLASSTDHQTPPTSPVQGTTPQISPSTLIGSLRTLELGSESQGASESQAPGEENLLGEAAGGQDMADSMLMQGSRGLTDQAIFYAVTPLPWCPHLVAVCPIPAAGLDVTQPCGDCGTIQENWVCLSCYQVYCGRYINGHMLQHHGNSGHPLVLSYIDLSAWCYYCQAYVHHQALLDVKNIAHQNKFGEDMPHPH

K562 = assay: Anticancer activity against human K562 cells assessed as cell growth inhibition by CellTiter-Glo luminescent assay; type: functional, cell-based
[8] = biological target: Bromodomain-containing protein 3 (Homo sapiens, UniProt Q15059); assay: Binding affinity to human BRD3 domain 2 assessed as dissociation constant by isothermal titration calorimetry assay
Sequence of Bromodomain-containing protein 3 (Q15059 whole entry, the tested form may be a part): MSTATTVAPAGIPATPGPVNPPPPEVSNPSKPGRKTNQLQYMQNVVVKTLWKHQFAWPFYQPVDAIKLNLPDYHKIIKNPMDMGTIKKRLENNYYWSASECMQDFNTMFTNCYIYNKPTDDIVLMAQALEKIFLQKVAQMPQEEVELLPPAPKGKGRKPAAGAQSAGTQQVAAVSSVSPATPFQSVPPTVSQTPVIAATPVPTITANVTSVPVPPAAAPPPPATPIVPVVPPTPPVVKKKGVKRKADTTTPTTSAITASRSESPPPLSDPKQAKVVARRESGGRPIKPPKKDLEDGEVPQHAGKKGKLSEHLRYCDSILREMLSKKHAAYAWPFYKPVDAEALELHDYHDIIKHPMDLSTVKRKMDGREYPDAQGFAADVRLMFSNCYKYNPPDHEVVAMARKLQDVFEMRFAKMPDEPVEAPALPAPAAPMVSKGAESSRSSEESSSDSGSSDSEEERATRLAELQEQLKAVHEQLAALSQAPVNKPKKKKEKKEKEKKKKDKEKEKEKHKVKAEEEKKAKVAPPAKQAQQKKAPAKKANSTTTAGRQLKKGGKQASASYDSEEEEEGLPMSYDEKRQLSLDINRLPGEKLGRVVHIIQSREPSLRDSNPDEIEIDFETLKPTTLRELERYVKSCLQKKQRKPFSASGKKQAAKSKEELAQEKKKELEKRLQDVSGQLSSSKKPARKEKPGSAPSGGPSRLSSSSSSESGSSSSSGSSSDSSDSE

Histone deacetylase 1 = Histone deacetylase 1 (Homo sapiens, UniProt Q13547); assay: Inhibition of human recombinant HDAC1 assessed as fluorescence using fluorogenic substrate ZMAL incubated for 90 min by microplate reader
Sequence of Histone deacetylase 1 (Q13547 whole entry): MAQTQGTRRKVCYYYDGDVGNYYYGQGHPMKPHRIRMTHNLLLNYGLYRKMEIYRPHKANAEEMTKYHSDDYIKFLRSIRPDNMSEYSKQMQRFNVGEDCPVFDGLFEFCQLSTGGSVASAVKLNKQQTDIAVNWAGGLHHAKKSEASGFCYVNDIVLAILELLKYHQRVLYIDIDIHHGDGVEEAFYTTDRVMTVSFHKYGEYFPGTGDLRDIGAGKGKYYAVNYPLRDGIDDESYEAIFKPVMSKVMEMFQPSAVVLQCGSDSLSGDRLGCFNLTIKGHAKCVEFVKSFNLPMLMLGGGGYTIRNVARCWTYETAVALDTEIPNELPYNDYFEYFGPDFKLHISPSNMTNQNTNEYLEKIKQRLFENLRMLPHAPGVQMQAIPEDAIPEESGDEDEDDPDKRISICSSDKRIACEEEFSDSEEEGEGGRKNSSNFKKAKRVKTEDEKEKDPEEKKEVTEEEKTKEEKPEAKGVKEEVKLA

HPBALL [9] = assay: Induction of apoptosis in human HPBALL cells assessed as accumulation at sub-G1 phase at 5 uM after 72 hrs by flow cytometry; type: functional, cell-based
[10] = biological target: T2, Histone deacetylase (Homo sapiens); assay: Inhibition of HDAC in human K562 cells assessed as increase in acetylated histone H3 measured after 48 hrs by Western blot analysis; type: cell-based
Histone deacetylase 3 = Histone deacetylase 3 (Homo sapiens, UniProt O15379); assay: Inhibition of human HDAC3 assessed as target activity using fluorogenic substrate ZMAL for 90 min by microplate reader at 355nm
Sequence of Histone deacetylase 3 (O15379 whole entry): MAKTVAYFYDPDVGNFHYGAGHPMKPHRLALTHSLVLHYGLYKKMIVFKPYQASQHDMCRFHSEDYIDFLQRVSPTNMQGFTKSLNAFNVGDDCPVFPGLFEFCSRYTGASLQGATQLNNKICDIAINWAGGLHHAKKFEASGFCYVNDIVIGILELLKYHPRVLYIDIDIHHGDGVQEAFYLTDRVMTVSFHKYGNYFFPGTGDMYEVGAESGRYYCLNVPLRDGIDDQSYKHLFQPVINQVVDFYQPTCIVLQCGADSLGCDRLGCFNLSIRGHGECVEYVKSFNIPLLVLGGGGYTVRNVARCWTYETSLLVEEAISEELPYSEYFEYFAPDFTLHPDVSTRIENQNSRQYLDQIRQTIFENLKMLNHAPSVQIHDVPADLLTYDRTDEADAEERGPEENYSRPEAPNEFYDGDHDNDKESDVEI

[11] = biological target: T2, Histone deacetylase (Homo sapiens); assay: Inhibition of HDAC in human K562 cells assessed as increase in acetylated alpha-tubulin measured after 48 hrs by Western blot analysis; type: cell-based
HPBALL [12] = assay: Induction of apoptosis in human HPBALL cells assessed as decrease in MYC protein levels at 5 uM after 24 hrs by Western blot analysis; type: functional, cell-based
TALL-1 [13] = assay: Cytotoxicity against human TALL-1 cells assessed as cell viability at 5 uM by CellTiter-Glo luminescent assay; type: functional; details: read-out: Activity
REH = assay: Anticancer activity against human REH cells assessed as cell growth inhibition by CellTiter-Glo luminescent assay; type: functional, cell-based
[14] = biological target: Bromodomain-containing protein 4 (Homo sapiens, UniProt O60885); assay: Binding affinity to human BRD4 domain 1 (unknown origin) assessed as dissociation constant by isothermal titration calorimetry assay; details: read-out: Kd
HAL-01 = assay: Anticancer activity against human HAL-01 cells assessed as cell growth inhibition by CellTiter-Glo luminescent assay; type: functional, cell-based
MOLT-4 = assay: Cytotoxicity against human MOLT-4 cells assessed as cell viability at 5 uM by CellTiter-Glo luminescent assay; type: functional; details: read-out: Activity
HL-60 [15] = assay: Anticancer activity against human HL-60 cells assessed as cell growth inhibition by CellTiter-Glo luminescent assay; type: functional, cell-based

Sequence of Histone deacetylase 2 (Q92769 whole entry, the tested form may be a part): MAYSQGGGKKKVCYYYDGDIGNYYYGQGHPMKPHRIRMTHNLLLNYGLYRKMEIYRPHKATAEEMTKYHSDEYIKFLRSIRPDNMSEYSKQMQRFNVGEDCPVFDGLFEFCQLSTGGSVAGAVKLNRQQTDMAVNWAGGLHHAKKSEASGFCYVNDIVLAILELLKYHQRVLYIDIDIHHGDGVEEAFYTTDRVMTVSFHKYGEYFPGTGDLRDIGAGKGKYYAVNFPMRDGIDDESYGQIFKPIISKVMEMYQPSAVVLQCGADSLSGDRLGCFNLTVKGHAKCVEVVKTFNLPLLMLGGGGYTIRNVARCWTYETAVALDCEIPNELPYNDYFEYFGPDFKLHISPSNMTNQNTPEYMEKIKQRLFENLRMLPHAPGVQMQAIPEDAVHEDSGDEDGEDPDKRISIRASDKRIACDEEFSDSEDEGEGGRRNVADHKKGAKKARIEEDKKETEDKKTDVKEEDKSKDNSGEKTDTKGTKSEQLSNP

| IC50 (Histone deacetylase 2) [nM] | Kd [1] [nM] | Kd [4] [nM] | IC50 [7] [nM] | IC50 (K562) [nM] | Kd [8] [nM] | IC50 (Histone deacetylase 1) [nM] | Activity [10] | IC50 (Histone deacetylase 3) [nM] | Activity [11] | Kd [14] [nM] | Compound | IC50 (HPBALL [3]) [nM] | IC50 (TALL-1 [5]) [nM] | viability at 5 µM (HL-60 [6]) [%] | Activity (HPBALL [9]) | Activity (HPBALL [12]) | viability at 5 µM (TALL-1 [13]) [%] | IC50 (REH) [nM] | IC50 (HAL-01) [nM] | viability at 5 µM (MOLT-4) [%] | further results |
| --- | --- | --- | --- | --- | --- | --- | --- | --- | --- | --- | --- | --- | --- | --- | --- | --- | --- | --- | --- | --- | --- |
| 208 | 3100 | 230 | 46 | 2900 | 3750 | 93 | Active | 64 | Active | 790 | COc1ccc(S(=O)(=O)n2ccc(/C=C/C(=O)NO)c2)cc1NC(=O)c1[nH]c(C)c2c1CCCCC2=O | 6310 | 2330 | 42.3 | Active | Active | 10.6 | 9760 | 6410 | 4 | inhibition [2]: Active; IC50 (HL-60 [15]): 4630 nM |
| 359 | 3300 | 7400 | 42 | 3400 | 7550 | 179 | Active | 119 | Active | 2980 | CCc1c(C(=O)Nc2cc(/C=C/C(=O)NO)ccc2OC)[nH]c(C)c1C(C)=O | 6790 | 2880 | 22.1 | Active | Active | 15.1 | > 25000 | > 25000 | 3.5 | Activity [2]: Active; IC50 (HL-60 [15]): 7820 nM |

| Compound | IC50 (Histone deacetylase 2) [nM] | Kd [1] [nM] | Kd [4] [nM] | IC50 [7] [nM] | IC50 (K562) [nM] | Kd [8] [nM] | IC50 (Histone deacetylase 1) [nM] | Activity [10] | IC50 (Histone deacetylase 3) [nM] | Activity [11] | Kd [14] [nM] | IC50 (HPBALL [3]) [nM] | IC50 (TALL-1 [5]) [nM] | viability at 5 µM (HL-60 [6]) [%] | Activity (HPBALL [9]) | Activity (HPBALL [12]) | viability at 5 µM (TALL-1 [13]) [%] | IC50 (REH) [nM] | IC50 (HAL-01) [nM] | viability at 5 µM (MOLT-4) [%] | further results |
| --- | --- | --- | --- | --- | --- | --- | --- | --- | --- | --- | --- | --- | --- | --- | --- | --- | --- | --- | --- | --- | --- |
| Cc1[nH]c(C(=O)Nc2cc(S(=O)(=O)N3CCOCC3)ccc2OCCCCCCCC(=O)NO)c2c1C(=O)CCCC2 | 534 | 67 | 27 | 67 | 5990 | 100 | 163 | Active | 296 | Active | 76 | 7130 | 2930 | 35.9 | Active | Active | 50 | 7790 | 5930 | 1.7 | inhibition [2]: Active; IC50 (HL-60 [15]): 2750 nM |
